Each compound was assayed against T1, Interleukin-1 receptor-associated kinase 4 (Homo sapiens, UniProt Q9NWZ3) (assay: Inhibition of recombinant human full-length His-tagged IRAK4 expressed in baculovirus infected insect cells using KKARFSRFAGSSPSQSSMVAR as substrate preincubated for 15 mins followed by substrate addition and measured after 2 hrs by LC-MS/MS analysis).
T1 sequence (Q9NWZ3 whole entry): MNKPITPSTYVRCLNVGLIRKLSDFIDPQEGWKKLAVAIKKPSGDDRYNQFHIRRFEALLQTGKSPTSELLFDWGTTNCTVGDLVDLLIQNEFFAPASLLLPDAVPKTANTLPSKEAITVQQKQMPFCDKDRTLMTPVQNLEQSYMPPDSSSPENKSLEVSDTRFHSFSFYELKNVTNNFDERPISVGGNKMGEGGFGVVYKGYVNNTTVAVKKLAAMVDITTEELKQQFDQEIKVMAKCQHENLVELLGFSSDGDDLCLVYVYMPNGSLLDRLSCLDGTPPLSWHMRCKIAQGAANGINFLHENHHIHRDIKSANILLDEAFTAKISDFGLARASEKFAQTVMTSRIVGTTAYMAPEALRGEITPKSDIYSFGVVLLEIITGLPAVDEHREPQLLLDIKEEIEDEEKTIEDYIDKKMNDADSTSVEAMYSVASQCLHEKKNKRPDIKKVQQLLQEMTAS

Compared with COc1cc2nn([C@H]3CC[C@@]4(CC3)CC(=O)N(C)C4)cc2cc1C(=O)Nc1cnc2cccnn12, CO[C@H]1C[C@H](Oc2cc3nn(C4CCC5(CC4)CN(C(C)=O)C5)cc3cc2C(=O)Nc2cnc3cccnn23)C1 is lower in IC50: 200 pM for the first, less than 30 pM for the second.

COc1cc2nn([C@H]3CC[C@H](N(C)C(=O)[C@@H](C)O)CC3)cc2cc1C(=O)Nc1cnc2cccnn12 was tested, and the IC50 was 200 pM.
